# Where a name gives a salt, the structure may show the parent alone.
# Columns and labels:
# [1] = biological target: human mPGES-1 (Homo sapiens (Human), UniProt O14684); test: mPGES-1 inhibiting activity (microsome fractions, PGE2 by HTRF); format: biochemical; settings: microsomes from CHO-K1 cells transfected with human mPGES-1; PGH2 1 μM, 4° C., 60 seconds; read-out: mPGES-1 Inhibition IC50
# Experimental: mPGES-1 microsome fractions were prepared from CHO-K1 cells transiently transfected with plasmid encoding the human mPGES-1cDNA. Microsomes were diluted with potassium phosphate buffer containing reduced glutathione (pH7.4), and DMSO containing test compound or DMSO alone was added (such that DMSO final concentration would be 1% in each) and incubated at 4° C. for 20 minutes. Then, the enzymatic reactions were initiated by the addition of PGH2 substrate (final concentration 1 μM) and incubated at 4° C. for 60 seconds. The reaction was terminated by the addition of a citrate solution (final citrate concentration 50 mM) containing ferric chloride (final concentration 1 mg/mL). PGE2 production in the enzyme reaction aliquot was measured using HTRF kit (Cisbio International, catalogue #62P2APEC). The solution free of test compound was used as positive control, and the solution free of test compound and microsome sample was used as negative control. 100% activity was defined as PGE2 production in the positive control minus PGE2 production in negative control. IC50 value was calculated by standard method.
# [2] = tested on: A549 cells; test: Inhibition of PGE2 production in A549 cell (IL-1β stimulated); format: cell-based, human; settings: IL-1β 5 ng/well, PGE2 in culture medium
# Experimental: Human A549 cells were seeded onto a 96-well plate at 2×10^4 cells/100 μL per well and allowed to incubate overnight. After removing the culture medium and washing with phosphate buffered saline, the culture medium was replaced by RPMI culture medium with 3% FBS containing a DMSO solution containing test compound or DMSO alone (such that DMSO final concentration would be […] in each). After incubation for 60 minutes, IL-1β (5 ng/well) was added and incubated at 37° C. for 24 hours. Then, PGE2 in the culture medium was measured using HTRF kit (Cisbio International, catalogue #62P2APEC), and PGF2α in the culture medium was measured using EIA kit (Cayman Chemical Company, catalogue #516011). The solution free of test compound was used as positive control, and the solution free of test compound and IL-1β was used as negative control. 100% activity was defined as PGE2 and PGF2α production in the positive control minus PGE2 and PGF2α production in the negative control. IC50 value was calculated by standard method.
# human mPGES-1, sequence (O14684 whole entry): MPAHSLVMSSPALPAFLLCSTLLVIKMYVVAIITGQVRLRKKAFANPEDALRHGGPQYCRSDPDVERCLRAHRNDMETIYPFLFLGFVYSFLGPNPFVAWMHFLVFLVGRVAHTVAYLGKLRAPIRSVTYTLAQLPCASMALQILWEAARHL
SMILES,IC50 [1] [nM],"IC50 ([2]; Homo sapiens, A549, 24 h) [nM]","IC50 ([2]; 24 hours, hydrochloride) [nM]"
"CCc1nc2c(C(=O)NCc3ccccc3C(F)(F)F)cc(NC(=O)c3ccccc3C(F)(F)F)cc2[nH]1 [Example 19, 2-Ethyl-N-[2-(trifluoromethyl)benzyl]-6-({[2-(trifluoromethyl)phenyl]carbonyl}amino)-1H-benzimidazole-4-carboxamide]",9.4,47.8,
"CCOCc1nc2c(C(=O)NCc3ncccc3C(F)(F)F)cc(NC(=O)c3ccccc3C(F)(F)F)cc2[nH]1 [Example 80, 2-(Ethoxymethyl)-6-({[2-(trifluoromethyl)phenyl]carbonyl}amino)-N-{[3-(trifluoromethyl)pyridin-2-yl]methyl}-1H-benzimidazole-4-carboxamide dihydrochloride]",29.4,1250,
"COCc1nc2c(C(=O)Nc3cccc(Cl)c3C)cc(NC(=O)c3cc(Cl)ccc3Cl)cc2[nH]1 [Example 99, N-(3-Chloro-2-methylphenyl)-6-{[(2,5-dichlorophenyl)carbonyl]amino}-2-(methoxymethyl)-1H-benzimidazole-4-carboxamide hydrochloride]",3.7,18.9,
"CCn1cnc2c(C(=O)NCc3ccccc3C(F)(F)F)cc(NC(=O)c3ccccc3C(F)(F)F)cc21 [Example 51, 1-Ethyl-N-[2-(trifluoromethyl)benzyl]-6-({[2-(trifluoromethyl)phenyl]carbonyl}amino)-1H-benzimidazole-4-carboxamide]",120,330,
"Cc1c(Cl)cccc1NC(=O)c1cc(NC(=O)c2ccccc2C(F)(F)F)cc2[nH]c(C3(C(F)(F)F)CC3)nc12 [Example 89, N-(3-Chloro-2-methylphenyl)-2-[1-(trifluoromethyl)cyclopropyl]-6-({[2-(trifluoromethyl)phenyl]carbonyl}amino)-1H-benzimidazole-4-carboxamide]",1.2,2.1,
"Cc1c(Cl)cccc1NC(=O)c1cc(NC(=O)c2cc(Cl)ccc2Cl)cc2[nH]c(C(C)(C)C)nc12 [Example 87, 2-tert-Butyl-N-(3-chloro-2-methylphenyl)-6-{[(2,5-dichlorophenyl)carbonyl]amino}-1H-benzimidazole-4-carboxamide hydrochloride]",5.7,6.9,
"COCc1nc2c(C(=O)Nc3ccc(OC)cc3)cc(NC(=O)c3ccccc3C(F)(F)F)cc2[nH]1 [Example 37, 2-(Methoxymethyl)-N-(4-methoxyphenyl)-6-({[2-(trifluoromethyl)phenyl]carbonyl}amino)-1H-benzimidazole-4-carboxamide]",23.3,265,
"Cc1c(Cl)cccc1NC(=O)c1cc(NC(=O)c2ccccc2C(F)(F)F)cc2[nH]c(CC(C)C)nc12 [Example 59, N-(3-Chloro-2-methylphenyl)-2-(2-methylpropyl)-6-({[2-(trifluoromethyl)phenyl]carbonyl}amino)-1H-benzimidazole-4-carboxamide hydrochloride]",2.1,12.9,
"Cc1c(Cl)cccc1NC(=O)c1cc(NC(=O)c2ccccc2C(F)(F)F)cc2[nH]c(C3CN(C(=O)OC(C)(C)C)C3)nc12 [Example 61, tert-Butyl 3-{4-[(3-chloro-2-methylphenyl)carbamoyl]-6-({[2-(trifluoromethyl)phenyl]carbonyl}amino)-1H-benzimidazol-2-yl}azetidine-1-carboxylate]",3.2,66.7,
"COCc1nc2c(C(=O)Nc3ccccc3)cc(NC(=O)c3ccccc3C(F)(F)F)cc2[nH]1 [Example 214, 2-(Methoxymethyl)-N-phenyl-6-({[2-(trifluoromethyl)phenyl]carbonyl}amino)-1H-benzimidazole-4-carboxamide hydrochloride]",5.2,60.7,
"Cc1c(Cl)cccc1NC(=O)c1cc(NC(=O)c2ccccc2C(F)(F)F)cc2[nH]c(CC(N)=O)nc12 [Example 44, 2-(2-Amino-2-oxoethyl)-N-(3-chloro-2-methylphenyl)-6-({[2-(trifluoromethyl)phenyl]carbonyl}amino)-1H-benzimidazole-4-carboxamide hydrochloride]",4.1,1100,
"COCc1nc2c(C(=O)Nc3cccc(Cl)c3CO)cc(NC(=O)c3ccccc3C(F)(F)F)cc2[nH]1 [Example 234, N-[3-Chloro-2-(hydroxymethyl)phenyl]-2-(methoxymethyl)-6-({[2-(trifluoromethyl)phenyl]carbonyl}amino)-1H-benzimidazole-4-carboxamide]",97.4,198,
"COCc1nc2c(C(=O)Nc3cccc(Cl)c3C)cc(NC(=O)c3ncccc3F)cc2[nH]1 [Example 244, N-(3-Chloro-2-methylphenyl)-6-{[(3-fluoropyridin-2-yl)carbonyl]amino}-2-(methoxymethyl)-1H-benzimidazole-4-carboxamide hydrochloride]",56.2,104,
"COCc1nc2c(C(=O)NCc3ccccc3)cc(NC(=O)c3ccccc3C(F)(F)F)cc2[nH]1 [Example 217, N-Benzyl-2-(methoxymethyl)-6-({[2-(trifluoromethyl)phenyl]carbonyl}amino)-1H-benzimidazole-4-carboxamide hydrochloride]",26.9,317,
"COCc1nc2c(C(=O)Nc3cccc(Cl)c3C)cc(NC(=O)c3cc(Cl)ccc3Br)cc2[nH]1 [Example 107, 6-{[(2-Bromo-5-chlorophenyl)carbonyl]amino}-N-(3-chloro-2-methylphenyl)-2-(methoxymethyl)-1H-benzimidazole-4-carboxamide hydrochloride]",1.5,42,
"Cc1nc2c(C(=O)NCc3ccccc3C(F)(F)F)cc(NC(=O)c3ccccc3C(F)(F)F)cc2[nH]1 [Example 12, 2-Methyl-N-[2-(trifluoromethyl)benzyl]-6-({[2-(trifluoromethyl)phenyl]carbonyl}amino)-1H-benzimidazole-4-carboxamide hydrochloride]",7.1,41,
"COCc1nc2c(C(=O)NC3CCCCC3)cc(NC(=O)c3ccccc3C(F)(F)F)cc2[nH]1 [Example 20, N-Cyclohexyl-2-(methoxymethyl)-6-({[2-(trifluoromethyl)phenyl]carbonyl}amino)-1H-benzimidazole-4-carboxamide]",5.6,98,
"COCc1nc2c(C(=O)Nc3cccc(Cl)c3C)cc(NC(=O)c3c(C)cccc3Cl)cc2[nH]1 [Example 104, N-(3-Chloro-2-methylphenyl)-6-{[(2-chloro-6-methylphenyl)carbonyl]amino}-2-(methoxymethyl)-1H-benzimidazole-4-carboxamide hydrochloride]",2.9,71.1,
"Cc1c(Cl)cccc1NC(=O)c1cc(NC(=O)c2ccccc2C(F)(F)F)cc2[nH]c([C@H]3CCCO3)nc12 [Example 64, N-(3-Chloro-2-methylphenyl)-2-[(2R)-tetrahydrofuran-2-yl]-6-({[2-(trifluoromethyl)phenyl]carbonyl}amino)-1H-benzimidazole-4-carboxamide hydrochloride]",2.3,,20.1
"Cc1c(Cl)cccc1NC(=O)c1cc(NC(=O)c2ccccc2C(F)(F)F)cc2[nH]c(NCC(C)(C)O)nc12 [Example 167, N-(3-Chloro-2-methylphenyl)-2-[(2-hydroxy-2-methylpropyl)amino]-6-({[2-(trifluoromethyl)phenyl]carbonyl}amino)-1H-benz imidazole-4-carboxamide hydrochloride]",1,217,
"CNC(=O)Cc1nc2c(C(=O)Nc3cccc(Cl)c3C)cc(NC(=O)c3ccccc3C(F)(F)F)cc2[nH]1 [Example 134, N-(3-Chloro-2-methylphenyl)-2-[2-(methylamino)-2-oxoethyl]-6-({[2-(trifluoromethyl)phenyl]carbonyl}amino)-1H-benzimidazole-4-carboxamide hydrochloride]",10.3,921,
"Cc1c(Cl)cccc1NC(=O)c1cc(NC(=O)c2cc(Cl)ccc2Cl)cc2[nH]c(C3CC3)nc12 [Example 208, N-(3-Chloro-2-methylphenyl)-2-cyclopropyl-6-{[(2,5-dichlorophenyl)carbonyl]amino}-1H-benzimidazole-4-carboxamide hydrochloride]",0.7,13,
"CC(C)Cc1nc2c(C(=O)NCc3ccccc3C(F)(F)F)cc(NC(=O)c3ccccc3C(F)(F)F)cc2[nH]1 [Example 60, 2-(2-Methylpropyl)-N-[2-(trifluoromethyl)benzyl]-6-({[2-(trifluoromethyl)phenyl]carbonyl}amino)-1H-benzimidazole-4-carboxamide hydrochloride]",19.8,8,
